In US20260240842A1, “METHODS TO PREVENT THERAPY RESISTANCE IN MELANOMA VIA BLOCKING GENOMIC INSTABILITY” (THE REGENTS OF THE UNIVERSITY OF CALIFORNIA, priority 2022, published 2026):

Test system: M229 and M245 cell lines
Assay: WGS of short-term treated cell lines: treatment-specific ecDNA+CGR genomic spans
Format: cell-based, human
Details: co-treatment with MAPKi for 10 to 11 days, FIG. 5H
Source text: FIGS. 5A-5H. Resistance-driver ecDNAs and HSRs dynamically track with resistance and DNA-PKi prevents size-expansion of ecDNAs and CGRs early on MAPKi treatment. FIGS. 5A to 5C, Metaphase DNA-FISH of paired parental and acquired resistant BRAF^V600MUT (5A and 5B) or NRAS^Q61MUT (5C) cell lines without or with drug withdrawal showing ecDNA- or HSR-amplicons harboring BRAF, RAF1 or NRAS. Left, representative images; right, quantifications per cell. Ruler, 15 μm. P values (Unpaired two-tailed Student's t-test): *, p<0.05; **, p<0.01; ***, p<0.001. […] FIG. 5G: Representative images (left) and quantification (right) of metaphase DNA-FISH showing HSR harboring BRAF in M249 cells treated with vehicle or BRAFi+MEKi, with or without NU7026 and/or ABT888 for 31 days. […] FIG. 5H: Average total genomic spans of treatment-specific ecDNAs+CGRs in M229 and M245 cell lines (background ecDNA+CGR spans detected in vehicle-treated cells were filtered). […]
Genomic DNA (gDNA) and total RNA were extracted from frozen tumor tissue preserved in RNALater or snap-frozen tumor tissue using the QIAGEN AllPrep DNA/RNA Mini Kit and the Ambion mirVana miRNA Isolation Kit. […] After library construction, indexed libraries were quantified for equal molar pooling and paired-end sequenced with a read length of 2×150 bp on the Illumina NovaSeq 6000 S4 platform. […]

O=c1cc(N2CCOCC2)oc2c1ccc1ccccc12 [NU7026]
MAPKi-elicited treatment-specific ecDNA+CGR genomic spans: blunted the expansion of ecDNA+CGR genomic spans in both cell lines
